Results taken from patent publication EP4722213A1, “NITROGEN-CONTAINING FUNCTIONAL GROUP-SUBSTITUTED PYRIDAZINOPYRIDONE DERIVATIVE AND USE THEREOF” (Sichuan Huiyu Pharmaceutical Co., Ltd., priority 2023, dated 2024).
Read-outs that look alike come from different tables or passages of the source.

What was measured:
[1] = test system: NCI-H358 non-small cell lung cancer cells; experiment: Inhibition of NCI-H358 cell proliferation (CellTiter-Glo 3D, 7 days); assay type: cell-based; conditions: Homo sapiens, NCI-H358, 168 h, 3D microspheres, read-out: Inhibitory activity against NCI-H358 cell proliferation (IC50)
In short: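 NCI-H358 cells at 2000/well in ultra-low attachment plates grown overnight into spheroids, then exposed to 8-point 5-fold compound dilutions in RPMI-1640/10% FBS for 7 days at 37 °C. Viability by CellTiter-Glo 3D luminescence; inhibition relative to no-inhibitor and cell-free controls.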

[2] = Rat liver microsomal metabolic stability; assay type: in vitro ADME; conditions: rat liver microsomes
In short: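 Rat liver microsomes (1 mg/mL working solution) with test compound (working solution 100 µM) were pre-incubated 5 min at 37 °C, then started with NADPH (4.0 mM working solution). Residual compound measured by LC-MS/MS over time. T1/2 taken from first-order decay, scaled to CLint and hepatic CL with fu = 1.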

[3] = target: T1, CYP2C19 (Homo sapiens, UniProt P33261); experiment: Inhibition of hepatic drug-metabolizing enzymes in human liver microsomes; assay type: in vitro ADME
T1 construct: human liver microsomes were used as the CYP450 enzyme source; from tissue; host or cells: human liver microsomes
T1 sequence (P33261 whole entry): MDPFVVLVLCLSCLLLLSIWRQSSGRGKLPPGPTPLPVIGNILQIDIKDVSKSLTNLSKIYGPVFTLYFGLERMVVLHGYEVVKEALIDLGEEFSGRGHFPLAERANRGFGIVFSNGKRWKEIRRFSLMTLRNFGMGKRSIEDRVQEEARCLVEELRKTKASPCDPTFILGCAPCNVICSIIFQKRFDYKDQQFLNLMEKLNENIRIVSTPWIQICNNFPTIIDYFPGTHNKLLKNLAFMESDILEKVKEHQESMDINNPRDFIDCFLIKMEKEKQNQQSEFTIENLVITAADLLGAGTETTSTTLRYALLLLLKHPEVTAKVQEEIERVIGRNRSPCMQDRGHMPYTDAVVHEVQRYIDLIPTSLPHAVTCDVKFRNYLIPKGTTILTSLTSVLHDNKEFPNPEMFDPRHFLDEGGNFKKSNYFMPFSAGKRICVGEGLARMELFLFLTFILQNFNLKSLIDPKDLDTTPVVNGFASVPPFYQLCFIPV
Excerpt: (§1) The main site of drug metabolism is the liver, and the main component of the mixed-function oxidase system present in the liver is the CYP450 enzyme. This enzyme system causes most clinically observed drug-drug interactions, which in turn leads to an increased incidence of adverse drug reactions. CYP450 is a group of supergene family composed of many isozymes, wherein CYP3A4 acts as a major metabolizing enzyme and is involved in the metabolism of nearly half of clinically used drugs. Similarly, CYP2C9 and CYP2C19 also act as important metabolizing enzymes and are involved in the metabolism of various drugs clinically. Therefore, evaluating the risk of drug-drug interactions by testing the inhibitory activity of compounds on CYP450 enzymes at an early stage can improve the safety of medication use.
(§2) In the present disclosure, human liver microsomes were used as the CYP450 enzyme source. The specific probe substrates for each CYP isoenzyme (wherein CYP3A4 used two substrates, midazolam and testosterone, denoted as CYP3A4-M and CYP3A4-T respectively) were incubated with a series of concentrations of the test compound in the presence of the cofactor NADPH. The production amount of metabolites of probe substrates in the incubation system was determined by LC-MS/MS, and the IC50 values of the test compound against each CYP450 enzyme subtype were calculated to evaluate its inhibitory effect on each CYP450 enzyme subtype. During the experiment, 49 µL of PBS, 50 µL of probe substrate, and 50 µL of human liver microsome working solution were sequentially added to the incubation system, followed by the addition of 1 µL of the test compound working solution at each concentration, and the mixture was mixed well. After pre-incubation at 37°C for 5 min, 50 µL of NADPH was added to initiate the reaction. After incubation for the corresponding time, an appropriate amount of ice-cold acetonitrile containing an internal standard was added to terminate the reaction. The mixture was vortexed to mix well, centrifuged, and the supernatant was taken. The supernatant was injected into LC-MS/MS to determine the production amount of metabolites of the probe substrate. Taking the enzyme activity at the 0-concentration point (characterized by the production amount of metabolites) as 100%, the percentage of residual enzyme activity of metabolites at different concentrations of the test compound was calculated. IC50 was calculated by the residual enzyme activity using Graphpad Prism software.

[4] = target: T2, CYP2C9 (Homo sapiens, UniProt P11712); experiment: as above; assay type: in vitro ADME
T2 construct: human liver microsomes were used as the CYP450 enzyme source; from tissue; host or cells: human liver microsomes
T2 sequence (P11712 whole entry): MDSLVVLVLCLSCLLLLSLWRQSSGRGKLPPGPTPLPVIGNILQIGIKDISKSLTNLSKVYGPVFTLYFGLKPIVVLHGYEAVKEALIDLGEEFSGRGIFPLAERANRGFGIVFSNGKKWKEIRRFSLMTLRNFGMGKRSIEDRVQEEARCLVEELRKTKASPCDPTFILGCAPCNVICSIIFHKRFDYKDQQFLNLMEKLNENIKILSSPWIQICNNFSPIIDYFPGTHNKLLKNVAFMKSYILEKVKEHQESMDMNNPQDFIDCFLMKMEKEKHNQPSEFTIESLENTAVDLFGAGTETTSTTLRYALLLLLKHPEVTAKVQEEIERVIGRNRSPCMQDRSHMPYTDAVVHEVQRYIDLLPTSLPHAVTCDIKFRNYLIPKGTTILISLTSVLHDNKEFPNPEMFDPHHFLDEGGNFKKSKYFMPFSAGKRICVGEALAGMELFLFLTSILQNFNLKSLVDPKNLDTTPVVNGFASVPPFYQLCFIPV
Excerpt: as §1, §2

[5] = target: T3, CYP3A4 (Homo sapiens, UniProt P08684); experiment: Inhibition of hepatic drug-metabolizing enzymes in human liver microsomes (substrates midazolam and testosterone); assay type: in vitro ADME
T3 construct: human liver microsomes were used as the CYP450 enzyme source; from tissue; host or cells: human liver microsomes
T3 sequence (P08684 whole entry): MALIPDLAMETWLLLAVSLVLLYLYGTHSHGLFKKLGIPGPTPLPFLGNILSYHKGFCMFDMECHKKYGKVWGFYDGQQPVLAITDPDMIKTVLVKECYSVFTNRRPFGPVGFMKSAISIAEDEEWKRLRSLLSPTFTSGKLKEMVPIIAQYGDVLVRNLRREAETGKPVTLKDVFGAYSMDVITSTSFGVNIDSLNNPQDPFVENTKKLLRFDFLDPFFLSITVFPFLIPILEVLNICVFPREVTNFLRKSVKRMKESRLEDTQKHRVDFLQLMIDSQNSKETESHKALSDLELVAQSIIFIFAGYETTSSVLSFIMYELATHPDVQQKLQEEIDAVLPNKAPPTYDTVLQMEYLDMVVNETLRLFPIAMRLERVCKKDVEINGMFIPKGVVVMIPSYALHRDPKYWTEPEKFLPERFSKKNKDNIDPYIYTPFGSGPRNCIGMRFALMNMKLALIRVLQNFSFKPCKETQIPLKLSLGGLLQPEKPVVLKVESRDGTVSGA
Excerpt: as §1, §2

[6] = calculated from T1/2, fu defaulted to 1, read-out: CL(liver)

Compound | IC50 [1] | half-life at 1 µM ([2]; NADPH, 37°C) | CLint scaled at 1 µM [2, 6] | IC50 ([3]; human liver microsomes, read-out: Inhibitory activity on drug-metabolizing enzymes (IC50, µM) CYP2C19) | IC50 ([4]; human liver microsomes, read-out: Inhibitory activity on drug-metabolizing enzymes (IC50, µM) CYP2C9) | IC50 ([5]; substrate midazolam, read-out: Inhibitory activity on drug-metabolizing enzymes (IC50, µM) CYP3A4-M) | IC50 ([5]; substrate testosterone, read-out: Inhibitory activity on drug-metabolizing enzymes (IC50, µM) CYP3A4-T) | half-life ([2]; NADPH, 37°C) | CLint scaled [2, 6] | IC50 [3] | IC50 [4] | IC50 ([5]; Inhibitory activity on drug-metabolizing enzymes (IC50, µM) CYP3A4-M, substrate midazolam) | IC50 ([5]; Inhibitory activity on drug-metabolizing enzymes (IC50, µM) CYP3A4-T, substrate testosterone)
CC(C)N1CCN(c2nnc(N[C@H](C)c3cccc(C(F)F)c3F)c3cn(N4CCOCC4)c(=O)cc23)CC1 [Example 111, (R)-4-((1-(3-(difluoromethyl)-2-fluorophenyl)ethyl)amino)-1-(4-isopropylpiperazin-1-yl)-6-morpholinopyrido[3 ,4-d]pyridazin-7(6H)-one] | 0.0144 µM | > 5 h | < 7.23 mL/min/kg | > 10 µM | > 10 µM | > 10 µM | > 10 µM | – | – | – | – | – | –
C[C@@H](Nc1nnc(N2CCN(C)CC2)c2cc(=O)n(C3CC3)cc12)c1cccc(C(F)F)c1F [Example 77] | 0.0396 µM | – | – | – | – | – | – | > 5 h | < 7.23 mL/min/kg | > 10 µM | > 10 µM | 7.81 µM | > 10 µM
